# Where two headings read alike, the source gives them in different places.
# How the values were obtained:
# [1] = system: cMdr1-KO MDCK-EV cells; assay: In vitro permeability (Papp), transwell transport; conditions: for Papp Apical to basolateral / Papp Basolateral to apical: 5 µM, 120 min, n=3, mean (CV%); for Efflux ratio: ratio of mean values
# [2] = Blood-to-plasma ratio (B/P); assay type: in vitro ADME, human
# Description: Determination of blood to plasma ratio (B/P):
# Whole human blood was collected on the day of the experiment from healthy volunteers. The collection protocol was approved by an independent ethical committee and all donors signed the consent forms. All samples were registered in the Janssen Biobank.
# Prewarmed blood aliquots were mixed with the compounds (final concentrations shown in Suppl. Table 5) with a final organic DMSO solvent concentration of ≤0.1% (v/v). After gentle mixing to avoid haemolysis, blood aliquots were immediately collected for protein precipitation (1:1:8 ratios of blood sample:DMSO:ACN) and centrifugation (10 minutes, 3800 g) and the supernatant was used as a 0-minute reference blood sample. At the same time, blood aliquots were taken and centrifuged (10 minutes, 1200 g) to obtain the plasma portion. Plasma aliquots were then immediately collected for protein precipitation (1:1:8 ratios of plasma sample:DMSO:ACN) and centrifugation (10 minutes, 3800 g) and the supernatant was used as a 0-minute reference plasma sample. The remainder of the blood fraction was incubated (30 min at 37 °C). Following incubation, 30 -minute blood and plasma samples were taken and prepared as described for the reference 0-minute samples.
# Mean compound concentration values (n=3 replicates) were calculated for both the blood and plasma samples. A blood-to-plasma concentration ratio was then determined using Eq. S4. […]
# [3] = Inhibitor plasma exposure and plasma binding (literature); assay type: in vivo, human; conditions: Figure 5
# Description: (§1) Supplement 5. Exploratory analysis to evaluate potential AO-mediated DDI risks […]
# (§2) Semi-mechanistic model for AO-mediated DDI risk predictions
# (§3) Supp. Table 4. Summary of inhibitor parameters used in the semi -mechanistic static model to evaluate the risk of AO -mediated DDIs
# (§4) Semi-mechanistic model for AO mediated DDI risk predictions: […]
# (§5) using the semi-mechanistic static model with listed parameters in Suppl. Table 4. The most conservative approach is used for all compounds with maximum Cmax,u and minimum Ki,u data available. […]
# (§6) [I] is the unbound concentration of inhibitors in the liver and was designated as the unbound maximum systemic concentration of inhibitors as a surrogate. 27 Due to the lack of AO kdeg values in the literature, the arithmetic means of all reported P450 kdeg (0.00026 min-1) was used.28, 29 […]
# (§7) Table S4. Summary of inhibitor parameters used in the semi-mechanistic static model to evaluate the risk of […]
# (§8) bSimcyp v.21 Compound Repository […]
# (§9) dCorrected for the 0.05 mg/mL cytosolic protein from the measured fuinc at 1.5 mg/mL cytosolic protein34, 36
# [4] = target: T1, aldehyde oxidase (AO) (Homo sapiens, UniProt Q06278); conditions: ref suppl. 30, 31, 32, 35, 59; cited from earlier work
# T1 sequence (Q06278 1-1338): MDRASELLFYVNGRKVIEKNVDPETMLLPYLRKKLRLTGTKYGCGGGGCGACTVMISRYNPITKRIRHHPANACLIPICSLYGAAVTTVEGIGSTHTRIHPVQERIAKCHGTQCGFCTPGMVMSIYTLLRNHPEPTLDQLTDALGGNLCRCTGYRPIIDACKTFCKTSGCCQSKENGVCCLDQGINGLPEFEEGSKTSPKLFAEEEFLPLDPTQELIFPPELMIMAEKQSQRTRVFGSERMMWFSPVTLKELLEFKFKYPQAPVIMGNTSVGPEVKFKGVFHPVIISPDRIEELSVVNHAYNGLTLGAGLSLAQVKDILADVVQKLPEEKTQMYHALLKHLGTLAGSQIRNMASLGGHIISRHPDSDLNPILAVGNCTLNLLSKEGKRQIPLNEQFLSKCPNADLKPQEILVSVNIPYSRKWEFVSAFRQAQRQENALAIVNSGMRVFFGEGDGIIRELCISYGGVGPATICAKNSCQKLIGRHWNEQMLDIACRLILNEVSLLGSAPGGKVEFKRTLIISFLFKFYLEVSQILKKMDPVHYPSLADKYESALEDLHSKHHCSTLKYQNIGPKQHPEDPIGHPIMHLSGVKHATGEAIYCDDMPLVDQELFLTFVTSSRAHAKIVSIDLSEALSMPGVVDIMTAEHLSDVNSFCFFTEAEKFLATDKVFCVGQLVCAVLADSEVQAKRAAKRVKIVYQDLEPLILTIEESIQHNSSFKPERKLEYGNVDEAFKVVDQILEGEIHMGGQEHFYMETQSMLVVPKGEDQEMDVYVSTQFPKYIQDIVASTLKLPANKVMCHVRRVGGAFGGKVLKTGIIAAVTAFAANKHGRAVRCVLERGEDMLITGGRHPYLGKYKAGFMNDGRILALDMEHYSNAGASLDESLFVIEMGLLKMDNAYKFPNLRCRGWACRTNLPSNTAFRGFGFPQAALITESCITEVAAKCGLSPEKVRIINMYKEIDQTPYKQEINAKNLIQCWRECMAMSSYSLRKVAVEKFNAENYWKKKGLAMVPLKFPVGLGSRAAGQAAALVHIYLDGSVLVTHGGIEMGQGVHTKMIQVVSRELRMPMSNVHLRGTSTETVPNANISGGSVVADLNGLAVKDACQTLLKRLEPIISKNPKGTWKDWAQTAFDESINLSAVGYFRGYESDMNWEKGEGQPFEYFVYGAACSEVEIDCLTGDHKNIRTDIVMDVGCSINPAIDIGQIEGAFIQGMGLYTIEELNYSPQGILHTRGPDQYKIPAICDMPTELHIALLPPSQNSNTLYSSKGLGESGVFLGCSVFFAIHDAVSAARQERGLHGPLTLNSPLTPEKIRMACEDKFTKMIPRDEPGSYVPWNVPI
# [5] = target: T1, aldehyde oxidase (AO); assay: In vitro AO inhibition (literature)
# Description: as §1, §2, §3, §4, §5, §6, §7, §8, §9
# [6] = cited from earlier work
# [7] = system: CYP3A4; conditions: cited from earlier work
# [8] = Cytosolic binding (fucyt), dog liver cytosol; conditions: 1 mg/mL; n=3, mean (CV%)
# [9] = cited from earlier work; for fmAO: ref suppl. 8-13; for fmCYP3A4: ref suppl. 8-12
# [10] = observed; ref Table S2/S3 studies; cited from earlier work
# [11] = In vitro permeability (Papp), transwell transport; conditions: dog, MDCK
# [12] = Cytosolic binding (fucyt), human liver cytosol with AO inhibitor; conditions: 1 mg/mL; n=3, mean (CV%)
# [13] = Plasma protein binding (fup), rapid equilibrium dialysis; assay type: in vitro ADME, human; conditions: male, human, 1 µM; for fup: 6 h, pH 7.4
# Protocol: (differing in 2 donors) were used for activity and microsomal binding assays, respectively.
# The human biological samples were sourced ethically, and their research use was in accord with the terms of the informed consents under an IRB/EC approved protocol.
# Determination of plasma protein binding (fup):
# Human plasma (male, K2EDTA) was obtained from BioIVT (Baltimore, MD, USA). A pool of n=20 donors was prepared in-house (batch: 16062022). The plasma protein binding of compounds in human was determined by equilibrium dialysis using the rapid equilibrium dialysis (RED) device (Thermo […]
# Frozen blank human plasma […]
# solution to a final concentration of 1 µM (0.5 % DMSO). 300 µ L of the fortified plasma samples were subjected to dialysis against 500 µL PBS buffer at pH 7.4, for 6 h at 37 °C in triplicate. After dialysis, 200 µl aliquots of the buffer and the plasma compartments were transferred into micronic tubes. To minimize the potential for non -specific binding to the micronic tubes the buffer sam ples were collected on to 50µl of 10 % bovine serum albumin (BSA). For the assessment of test compound stability in plasma, 300 µl aliquots of the spiked plasma solutions were transferred into micronic tubes and incubated in an air heated incubator at 37°C without shaking for 4 and 20 hours. The remaining spiked protein solutions were frozen and used to measure the initial start concentration ( C0) to calculate the recovery. Sample analysis was achieved by LC -MS/MS and absolute quantification of the drug lev els in the buffer and plasma compartments was achieved via a matrix matched calibration curve (in the presence of an internal standard tolbutamide). All buffer and plasma sample sets were matrix matched […]
# for analysis. The samples were centrifuged (15 minutes, 3400 g) and supernatants were transferred to a fresh plate for analysis. The unbound concentration (Cu), and the total concentration (CED) were determined by measurement of the concentration of the test compound in the buffer and plasma compartments of the dialysis cells, respectively. The fraction unbound was calculated using Eq. S1.
# fuplasma = Cu/CED (Eq. S1)
# The percentage recovery was calculated as the ratio of the sum of the amount in the buffer (Au) and plasma (AED) compartments to the amount at time zero (A0) (Eq. S2). The percentage stability was calculated as the ratio of the concentration of the test compound at the end of the incubation (C t) time […]
# % recovery = (( Au + AED ) / A0 ) × 100 (Eq. S2)
# [14] = DDI study with rifampicin (capmatinib 400, idelalisib 150, lenvatinib 24 mg) or carbamazepine (ziprasidone 20 mg), observed, ref suppl. 15,18,21,25
# [15] = with itraconazole (capmatinib 200 mg) or ketoconazole (idelalisib 400, lenvatinib 5, ziprasidone 40 mg), observed, ref suppl. 15,10,17,20,24
# [16] = with rifampicin (capmatinib 400, idelalisib 150, lenvatinib 24 mg) or carbamazepine (ziprasidone 20 mg), observed, ref suppl. 15,18,21,25
smiles,measurement,setting,value
C[C@H]1O[C@@H](O[C@H]2[C@@H](O)C[C@H](O[C@H]3[C@@H](O)C[C@H](O[C@H]4CC[C@@]5(C)[C@H](CC[C@@H]6[C@@H]5C[C@@H](O)[C@]5(C)[C@@H](C7=CC(=O)OC7)CC[C@]65O)C4)O[C@@H]3C)O[C@@H]2C)C[C@H](O)[C@@H]1O [3H-digoxin],Papp Apical to basolateral,[1],1.66 (34.3) 10^−6 cm/s
same,Papp Basolateral to apical,[1],1.43 (28) x 10-6 cm/s
same,Efflux ratio,[1],0.864
CC(C)NCC(O)COc1cccc2ccccc12 (stereo not drawn) [3H-propranolol],Papp Apical to basolateral,[1],31.4 (4.14) 10^−6 cm/s
same,Papp Basolateral to apical,[1],17.7 (9.6) x 10-6 cm/s
same,Efflux ratio,[1],0.563
OCC(O)C(O)C(O)C(O)[14CH2]O (stereo not drawn) [14C-mannitol],Papp Apical to basolateral,[1],0.793 (76.4) 10^−6 cm/s
same,Papp Basolateral to apical,[1],0.378 (63.2) x 10-6 cm/s
same,Efflux ratio,[1],0.476
CCN(CC)CCCC(C)Nc1ccnc2cc(Cl)ccc12 (stereo not drawn) [Chloroquine],B/P,[2]; 50 ng/mL,3.46
same,B/P,[2]; 1000 ng/mL,2.40
CN/C(=N/CCSCc1nc[nH]c1C)NC#N [Cimetidine],"Cmax,u",[3],5.0 µM
same,Mode of inhibition,[4],Competitive
same,Ki,"[5]; Ki,u, Figure 5",132000 nM
CC[C@H](Nc1ncnc2[nH]cnc12)c1nc2cccc(F)c2c(=O)n1-c1ccccc1 [Idelalisib],pKa1,[6]; 47 (per cell),1.6[45]
same,pKa2,[6]; 47 (per cell),3.4[45]
same,logP,"[6]; octanol-water, 12 (per cell)",2[45]
same,"Cmax, control","[7]; DDI study with itraconazole (capmatinib 200 mg) or ketoconazole (idelalisib 400, lenvatinib 5, ziprasidone 40 mg), observed geomean (CV%), ref suppl. 15,10,17,20,24",3550 ng/mL
same,"AUCinf, control","[7]; DDI study with itraconazole (capmatinib 200 mg) or ketoconazole (idelalisib 400, lenvatinib 5, ziprasidone 40 mg), observed, ref suppl. 15,10,17,20,24",15900 ng·h/mL
same,"AUCinf, control (AUC0-12 for ziprasidone)",[7]; [14],9599 (37) ng.h/mL
same,"Cmax, control",[7]; [14],2152 (24) ng/mL
same,"AUCinf, interaction",[7]; [15],28500 ng·h/mL
same,"Cmax, interaction",[7]; [15],4450 ng/mL
same,"AUCinf, interaction (AUC0-12 for ziprasidone)",[7]; [16],2294 (40) ng.h/mL
same,"Cmax, interaction",[7]; [16],933 (41) ng/mL
same,"fucyt, Dog Liver Cytosol with 50 uM Hydralazine",[8],0.814 (5.11)
same,fmAO,[9]; measured in excreta,0.29
same,fmAO,"[9]; observed (mass balance), min-max where uncertain, Table S10",29
same,fmCYP3A4,"[9]; observed (mass balance), min-max where uncertain",12-68
same,fmCYP3A4,[9],0.12–0.68
same,fmCYP3A4 (maximum),[9]; ref suppl. 9-11,0.68
same,fmCYP3A4 (minimum),[9]; ref suppl. 9-11,0.12
same,CLRenal,[10],0.459 L/h
same,"Papp A→B at 120 min, 5 µM",[11],16.2 ×10⁻⁶ cm/s
same,"Papp B→A at 120 min, 5 µM",[11],14.7 ×10⁻⁶ cm/s
same,"fucyt, Human Liver Cytosol with 5 uM Raloxifene",[12],0.787 (5.70)
same,"fucyt, Human Liver Cytosol with 50 uM Hydralazine",[12],0.924 (3.35)
CCC(C)n1ncn(-c2ccc(N3CCN(c4ccc(OCC5COC(Cn6cncn6)(c6ccc(Cl)cc6Cl)O5)cc4)CC3)cc2)c1=O (stereo not drawn) [Itraconazole],IC50,[5],> 2800 nM
CC(=O)N1CCN(c2ccc(OCC3COC(Cn4ccnc4)(c4ccc(Cl)cc4Cl)O3)cc2)CC1 (stereo not drawn) [Ketoconazole],IC50,[5],1200 to 2100 nM
CC(C)NCC(O)COc1cccc2ccccc12 (stereo not drawn) [Propranolol],fup,[13],0.137 (4.98)
same,% Stability in plasma,"[13]; plasma, 20 h",94.8%
CC(=O)CC(c1ccccc1)c1c(O)c2ccccc2oc1=O (stereo not drawn) [Warfarin],fup,[13],0.0064 (1.26)

# — publication PMC11706420, “Establishing a physiologically based pharmacokinetic framework for aldehyde oxidase and dual aldehyde oxidase‐CYP substrates” (CPT: Pharmacometrics & Systems Pharmacology, 2024)
